From patent US20190030048A1, “CASEIN MICELLES FOR NANOENCAPSULATION OF HYDROPHOBIC COMPOUNDS” (TECHNION RESEARCH AND DEVELOPMENT FOUNDATION LTD., priority 2006, published 2019)
Values joined by “and” are separate entries in the source; they are usually repeats but may differ in a detail not shown here. Equal entries are not always repeated. Where two headings read alike, the source gives them in different places.

Key:
[1] = Analytical fractionation (centrifugation) and RP-HPLC determination of vitamin D2 content in micelle pellet and serum; type: physicochemical; settings: for recovered vitamin D2 found incorporated into the micelles (encapsulation efficiency): D2-rCM suspension
Procedure: Micelle preparations were centrifuged at 20° C. and 25,000×g for one hour and the supernatant was separated from the pellet by decantation. The supernatant was then ultra-filtered using Amicon 8050 stirred ultrafiltration cell with a 10,000 Da nominal molecular weight limit membrane (Millipore). All fractions were collected and analyzed for vitamin D2 content.
Each sample was then poured into a separatory funnel. […] After gentle mixing the phases were allowed to separate.

In the case of C=C1CC[C@H](O)C/C1=C/C=C1\CCC[C@]2(C)[C@@H]([C@H](C)/C=C/[C@H](C)C(C)C)CC[C@@H]12 [vitamin D2, Vitamin D2], the “Percent of vitamin D2 remaining, micelle pellet” value (0 h) is reported as 100%, the “Percent of vitamin D2 remaining, UV exposed serum (control II)” value (serum, 0 h) is reported as 100% and the “Percent of vitamin D2 remaining, serum” value (serum, 0 h) is reported as 100%. The “Percent of vitamin D2 remaining, UV exposed serum (control II)” value (serum, 3 h) was 0.11%, the “vitamin concentration in the micelle pellet compared to the supernatant (serum)” value ([1]; CM prepared by ultra-high pressure homogenization) was 4-5 times and the “vitamin content of pellet” value ([1]; CM prepared by ultra-high pressure homogenization, pellet) was 30.3±0.4 micrograms/mL. For the same compound, the “vitamin content of supernatant” value ([1]; CM prepared by ultra-high pressure homogenization, supernatant) was 6.7±0.7 micrograms/mL, the “recovered vitamin D2 found incorporated into the micelles (encapsulation efficiency)” value ([1]; more typically) was 45-60% and the “recovered vitamin D2 found incorporated into the micelles (encapsulation efficiency)” value ([1]; overall range) was 25-75%. The “vitamin D2 concentration in the rCM” value ([1]; D2-rCM, micelle pellet) was 44 to 57 µg/mL, the “vitamin D2 concentration in serum” value ([1]; D2-rCM, serum) was 2 to 8 µg/mL and the “vitamin D2 concentration in the rCM relative to its concentration in serum” value ([1]; D2-rCM, more typically) was 4-10 times and 5-10 times.
